Experimental data taken from US4312867A, “Antibacterial compounds, processes for their preparation and compositions containing them” (Beecham Group Limited, priority 1979, dated 1982).
Converted amounts (≈) assume the structure as drawn.

Assays:
Format in all cases: cell-based
Strep faecalis I = test: MIC human bacteria (Table 1), serial dilution in nutrient agar; details: nutrient agar with 5% chocolated horse blood
Strep uberis SPU1 = test: MIC veterinary bacteria (Table 2), serial dilution in agar; details: diagnostic sensitivity test agar
[1] = test system: Pasteurella multocida 1633; test: MIC human bacteria (Table 1), serial dilution in nutrient agar; details: Pasteurella multocida, 1633
S. typhimurium S18 = test: MIC veterinary bacteria (Table 2), serial dilution in agar; details: Salmonella enterica, diagnostic sensitivity test agar
[2] = test system: Haemophilus influenzae Q1; test: MIC human bacteria (Table 1), serial dilution in nutrient agar; details: Haemophilus influenzae, Q1
[3] = test system: Corynebacterium xerosis 9755; test: as above; details: nutrient agar with 5% chocolated horse blood, read-out: MIC
Staph aureus W2827 = test: as above; details: Staphylococcus aureus, nutrient agar with 5% chocolated horse blood
[4] = test system: Staph aureus B4 (pen. resis); test: MIC veterinary bacteria (Table 2), serial dilution in agar; details: Staphylococcus aureus
E. coli ESS = test: MIC human bacteria (Table 1), serial dilution in nutrient agar; details: Escherichia coli; E. coli ESS; nutrient agar with 5% chocolated horse blood; read-out: MIC
Strep pyogenes A 64/848 = test: as above; details: nutrient agar with 5% chocolated horse blood
K. aerogenes A = test: as above; details: Klebsiella aerogenes, nutrient agar with 5% chocolated horse blood
E. coli NCTC 10418 [5] = test: MIC veterinary bacteria (Table 2), serial dilution in agar; details: Escherichia coli, NCTC10418
Staph aureus Oxford [6] = test: as above; details: Staphylococcus aureus
E. coli NCTC 10418 [7] = test: MIC human bacteria (Table 1), serial dilution in nutrient agar; details: Escherichia coli, NCTC10418
Sarcina lutea 8340 = test: as above; details: Micrococcus luteus, nutrient agar with 5% chocolated horse blood, read-out: MIC
Bacillus subtilis 6633 = test: as above; details: nutrient agar with 5% chocolated horse blood
[8] = test system: Erysipelothrix rhusiopathiae NCTC 8163; test: MIC veterinary bacteria (Table 2), serial dilution in agar; details: NCTC8163; Erysipelothrix rhusiopathiae NCTC 8163; diagnostic sensitivity test agar; read-out: MIC
Past multocida PA1 = test: as above; details: diagnostic sensitivity test agar
Strep pyogenes B 2788 = test: MIC human bacteria (Table 1), serial dilution in nutrient agar; details: nutrient agar with 5% chocolated horse blood
Past multocida PA2 = test: MIC veterinary bacteria (Table 2), serial dilution in agar; details: diagnostic sensitivity test agar
S. dublin S7 = test: as above; details: Salmonella enterica, diagnostic sensitivity test agar
[9] = test system: Corynebacterium pyogenes CY1; test: as above; details: Trueperella pyogenes, diagnostic sensitivity test agar
Past haemolytica PA5 = test: as above; details: diagnostic sensitivity test agar
Staph aureus Oxford [10] = test: MIC human bacteria (Table 1), serial dilution in nutrient agar; details: Staphylococcus aureus, nutrient agar with 5% chocolated horse blood
Strep pyogenes C 2761 = test: as above; details: nutrient agar with 5% chocolated horse blood
E. coli E1 = test: MIC veterinary bacteria (Table 2), serial dilution in agar; details: Escherichia coli, diagnostic sensitivity test agar
Bord bronchiseptica B08 = test: as above; details: diagnostic sensitivity test agar
[11] = test system: Strep suis (group D) SPS11; test: as above; details: diagnostic sensitivity test agar
[12] = test system: Staph aureus 152 (pen. sens); test: as above; details: Staphylococcus aureus, diagnostic sensitivity test agar
Bord bronchiseptica B09 = test: as above; details: diagnostic sensitivity test agar
[13] = test system: M bovigenitalium ATCC 14173; test: in vitro anti-mycoplasmal MIC, Friis' agar (Table 3)
Protocol: (§1) The minimum inhibitory concentrations (MIC) of the examples were determined by either:
(§2) or (ii) by serial dilution in Friis' agar medium.

M gallisepticum S6 = test: as above
Protocol: as §1, §2

M pulmonis JB [14] = test: as above
Protocol: as §1, §2

M hyorhinis ATCC 23234 = test: as above
Protocol: as §1, §2

M fermentans MWKL4 [15] = test: as above
Protocol: as §1, §2

M synoviae ATCC 25204 = test: as above
Protocol: as §1, §2

M alkalescens NCTC 10135 = test: as above
Protocol: as §1, §2

M arthritidis ATCC 14124 = test: as above
Protocol: as §1, §2

M pneumoniae 427a [16] = test: as above
Protocol: as §1, §2

M pneumoniae ATCC 15492 [17] = test: as above
Protocol: as §1, §2

M hyosynoviae ATCC 25591 = test: as above
Protocol: as §1, §2

Strep dysgalaciae SPD1 = test: MIC veterinary bacteria (Table 2), serial dilution in agar; details: diagnostic sensitivity test agar
[18] = test system: Haemophilus influenzae Wy21; test: MIC human bacteria (Table 1), serial dilution in nutrient agar; details: Haemophilus influenzae, WY21
[19] = test system: M suipneumoniae J2206/183b; test: in vitro anti-mycoplasmal MIC, Friis' broth (Table 3)
Protocol: as §1
(§3) (i) in Friis' broth using microtitre plates, by modification of the metabolic-inhibition test (Taylor-Robinson, Post Frad, Med. J., 1967, 43, 100).

M dispar NCTC 10125 = test: as above
Protocol: as §1, §3

M dispar H225 = test: as above
Protocol: as §1, §3

M suipneumoniae Str 11 = test: as above
Protocol: as §1, §3

M pulmonis JB [20] = test: as above
Protocol: as §1, §3

M fermentans MWKL4 [21] = test: as above
Protocol: as §1, §3

M pneumoniae 427a [22] = test: as above
Protocol: as §1, §3

M pneumoniae ATCC 15492 [23] = test: as above
Protocol: as §1, §3

P. mirabilis 889 = test: MIC human bacteria (Table 1), serial dilution in nutrient agar; details: Proteus mirabilis, 889
Staph aureus Russell = test: as above; details: Staphylococcus aureus, nutrient agar with 5% chocolated horse blood
Ps. aeruginosa 10662 = test: as above; details: Pseudomonas aeruginosa, nutrient agar with 5% chocolated horse blood
Strep agalactiae SPA1 = test: MIC veterinary bacteria (Table 2), serial dilution in agar; details: diagnostic sensitivity test agar

## C/C(=C\C(=O)OCCCS(N)(=O)=O)CC1OCC(CC2OC2C(C)C(C)O)C(O)C1O (stereo not shown) [Example 1, 3-Sulphamoylpropyl monate A]
Strep faecalis I
  MIC: > 100 µg/mL
Strep uberis SPU1
  MIC: 1.25 µg/mL (≈ 2.68 µM)
[1]
  MIC: 0.5 µg/mL (≈ 1.07 µM)
S. typhimurium S18
  MIC: > 80 µg/mL
[2]
  MIC: 0.05 µg/mL (≈ 0.107 µM)
[3]
  MIC: > 100 µg/mL
Staph aureus W2827
  MIC: 100 µg/mL (≈ 215 µM)
[4]
  MIC: 40 µg/mL (≈ 85.9 µM)
E. coli ESS
  MIC: 25 µg/mL (≈ 53.7 µM)
Strep pyogenes A 64/848
  MIC: 0.5 µg/mL (≈ 1.07 µM)
K. aerogenes A
  MIC: > 100 µg/mL
E. coli NCTC 10418 [5]
  MIC: > 80 µg/mL
Staph aureus Oxford [6]
  MIC: 40 µg/mL (≈ 85.9 µM)
E. coli NCTC 10418 [7]
  MIC: > 100 µg/mL
Sarcina lutea 8340
  MIC: > 100 µg/mL
Bacillus subtilis 6633
  MIC: 10 µg/mL (≈ 21.5 µM)
[8]
  MIC: > 80 µg/mL
Past multocida PA1
  MIC: 0.625 µg/mL (≈ 1.34 µM)
Strep pyogenes B 2788
  MIC: 2.5 µg/mL (≈ 5.37 µM)
Past multocida PA2
  MIC: 0.156 µg/mL (≈ 0.335 µM)
S. dublin S7
  MIC: > 80 µg/mL
[9]
  MIC: > 80 µg/mL
Past haemolytica PA5
  MIC: 10 µg/mL (≈ 21.5 µM)
Staph aureus Oxford [10]
  MIC: 50 µg/mL (≈ 107 µM)
Strep pyogenes C 2761
  MIC: 2.5 µg/mL (≈ 5.37 µM)
E. coli E1
  MIC: > 80 µg/mL
Bord bronchiseptica B08
  MIC: 80 µg/mL (≈ 172 µM)
[11]
  MIC: 80 µg/mL (≈ 172 µM)
[12]
  MIC: 20 µg/mL (≈ 43 µM)
Bord bronchiseptica B09
  MIC: 20 µg/mL (≈ 43 µM)
[13]
  MIC: 0.039 µg/mL (≈ 0.0838 µM)
M gallisepticum S6
  MIC: > 10 µg/mL
M pulmonis JB [14]
  MIC: 0.039 µg/mL (≈ 0.0838 µM)
M hyorhinis ATCC 23234
  MIC: 0.312 µg/mL (≈ 0.67 µM)
M fermentans MWKL4 [15]
  MIC: 0.078 µg/mL (≈ 0.168 µM)
M synoviae ATCC 25204
  MIC: < 0.02 µg/mL
M alkalescens NCTC 10135
  MIC: 0.039 µg/mL (≈ 0.0838 µM)
M arthritidis ATCC 14124
  MIC: > 10 µg/mL
M pneumoniae 427a [16]
  MIC: 2.5 µg/mL (≈ 5.37 µM)
M pneumoniae ATCC 15492 [17]
  MIC: 5 µg/mL (≈ 10.7 µM)
M hyosynoviae ATCC 25591
  MIC: 0.156 µg/mL (≈ 0.335 µM)
Strep dysgalaciae SPD1
  MIC: 2.5 µg/mL (≈ 5.37 µM)
[18]
  MIC: 0.05 µg/mL (≈ 0.107 µM)
[19]
  MIC: 0.312 µg/mL (≈ 0.67 µM)
M dispar NCTC 10125
  MIC: 0.078 µg/mL (≈ 0.168 µM)
M dispar H225
  MIC: 0.039 µg/mL (≈ 0.0838 µM)
M suipneumoniae Str 11
  MIC: 0.078 µg/mL (≈ 0.168 µM)
M pulmonis JB [20]
  MIC: 0.02 µg/mL (≈ 0.043 µM)
M fermentans MWKL4 [21]
  MIC: 0.039 µg/mL (≈ 0.0838 µM)
M pneumoniae 427a [22]
  MIC: 2.5 µg/mL (≈ 5.37 µM)
M pneumoniae ATCC 15492 [23]
  MIC: 2.5 µg/mL (≈ 5.37 µM)
P. mirabilis 889
  MIC: 100 µg/mL (≈ 215 µM)
Staph aureus Russell
  MIC: 50 µg/mL (≈ 107 µM)
Ps. aeruginosa 10662
  MIC: > 100 µg/mL
Strep agalactiae SPA1
  MIC: 2.5 µg/mL (≈ 5.37 µM)
